Experimental findings from PMC8073686, “Characterization of Subtype Selective Cannabinoid CB2 Receptor Agonists as Potential Anti-Inflammatory Agents” (Pharmaceuticals, 2021) are described below.

This test addresses T1, CB2 (Homo sapiens, UniProt P34972).
T1 construct: expressed in transfected cells; host or cells: HEK293T cells, calcium phosphate transfection, membrane preparation
The experiment in a line: Competitive [3H]CP55,940 radioligand binding, CB2-transfected HEK293T cell membrane. The following applies: competition with [3H]CP55,940; mean ± S.D. An excerpt:
To evaluate binding affinity of ABK5 analogs that have a difference in the position of substituents in the N-phenyl ring (Figure 1), we performed competitive radiolabeled ligand binding assays using cell membrane from HEK293T cells transfected with human CB2 receptors. […] ABK5-1, ABK5-2, and ABK5-6 dose-dependently competed with [^3H]CP55,940 and decreased the specific binding of the radiolabeled agonist, which reflects the binding of test compounds to CB2. […] Therefore, ABK5-5 was not considered for further evaluation in this study. […] We also examined CB2 selectivity (versus CB1) of the three compounds by performing similar binding assays using membrane from CB1 expressing HEK293 cells instead of CB2 expressing cells. […] Therefore, ABK5-1 and 5-2 maintained the CB2 subtype selectivity of ABK5.
In the experiment, 1 × 10^6 HEK293T cells were seeded in a 10-cm cell culture dish and cultured for 24 h. Cells were transfected with CB1 or CB2 using the calcium phosphate method. Approximately one day after transfection, cells were harvested and centrifuged at 4 °C for 5 min at 500× g. The pellet was washed with phosphate buffered saline (PBS) twice and resuspended in PBS containing 1% protease-inhibitor cocktail (Sigma-Aldrich, St. Louis, MO, USA) consisting of 104 mM 4-(2-aminoethyl) benzene sulfonyl fluoride hydrochloride (AEBSF), 80 μM apronitin, 4 mM bestatin, 1.64 mM E-64, 2 mM leupeptin, 1.5 mM pepstatin A. Then the cells were subjected to nitrogen cavitation under 750 psi for 5 min using a Parr cell disruption bomb. The lysate was centrifuged at 500× g for 10 min at 4 °C and the supernatant was spun at 116,000× g for 45 min at 4 °C. The pellet, consisting of the cell membrane expressing CB1 or CB2, was resuspended in TME buffer solution (25 mM Tris-HCl, 5 mM MgCl2, and 1 mM EDTA, pH 7.4) with 7% (w/v) sucrose/TME buffer. The concentration of the membrane protein was determined by the Bradford assay (Bradford, 1976).
Membrane protein was mixed with 1 nM to 10 μM of the test compounds and 1 nM [^3H]CP55,940 (164.9 Ci/mmol; PerkinElmer life Sciences, Waltham, MA, USA), and TME buffer supplemented with 0.2% BSA was used to bring the total volume to 200 μL. [^3H]CP55,940 acts as tracer and agonists that bind the target receptor compete with [^3H]CP55,940. Samples were incubated for 1 h at 30 °C. Ten μM unlabeled CP55,940 was used to determine non-specific binding. […] A Beckman Coulter 6500 liquid scintillation counter was used to measure the radioactivity of the samples.
Results are presented as the mean ± standard deviation (S.D.). […] The Ki values in the ligand binding assay were calculated using the Prism software (GraphPad Software Inc., San Diego, CA, USA), using IC50 values obtained from non-linear regression fitted to the one-site binding model. […]

Molecules are shown by their SMILES.

T1 sequence (P34972 whole entry): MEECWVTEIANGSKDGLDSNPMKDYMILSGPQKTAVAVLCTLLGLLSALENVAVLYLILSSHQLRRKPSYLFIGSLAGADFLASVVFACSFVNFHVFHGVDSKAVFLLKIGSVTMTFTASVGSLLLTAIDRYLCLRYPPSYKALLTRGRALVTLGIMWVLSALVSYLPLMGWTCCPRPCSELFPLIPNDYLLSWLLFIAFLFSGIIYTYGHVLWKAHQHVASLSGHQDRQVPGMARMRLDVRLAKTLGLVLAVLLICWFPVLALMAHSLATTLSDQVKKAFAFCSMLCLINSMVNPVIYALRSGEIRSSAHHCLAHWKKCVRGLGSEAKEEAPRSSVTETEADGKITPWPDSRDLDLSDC

On to `CCOC(=O)c1ccccc1NC(=O)CN(c1ccc(C)cc1C)S(=O)(=O)c1ccccc1` [ABK5-1], for which the affinity corresponds to a Ki of 28 ± 5 nM. As for `CCOC(=O)c1ccccc1NC(=O)CN(c1c(C)cccc1C)S(=O)(=O)c1ccccc1` [ABK5-2], the figure is 69 ± 19 nM.
